Measurements as given in PubChem BioAssay AID248 (DTP/NCI, 2004).
Values joined by “and” are separate entries in the source; they are usually repeats but may differ in a detail not shown here. Equal entries are not always repeated. Toxic doses and inconclusive results are not listed. Rule as the data show it: active = T/C of 150% or more; inactive = T/C below 125%.

Tested on: L1210 leukemia ip in BDF1 mice, survival T/C
Assay: NCI In Vivo Anticancer Drug Screen. Data for tumor model L1210 Leukemia (intraperitoneal) in B6D2F1 (BDF1) mice
Conditions: endpoint: mean survival time, higher = longer survival
Method in brief: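 Mice bearing the transplanted tumor received compound or vehicle. Survival of the treated group was divided by that of the vehicle-treated control group to give the ratio.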

[1] = dose: 100.0 mg/kg/injection, schedule: Q04DX002 (ip), vehicle: saline with Tween-80
[2] = dose: 200.0 mg/kg/injection, schedule: Q04DX002 (ip), vehicle: saline with Tween-80
[3] = dose: 400.0 mg/kg/injection, schedule: Q04DX002 (ip), vehicle: saline with Tween-80
[4] = dose: 200.0 mg/kg/injection, schedule: Q01DX001 (ip), vehicle: saline

Measured: T/C

Oc1ccc2cc(Br)ccc2c1-c1c(O)ccc2cc(Br)ccc12
inactive: [1] 97 % of control | [2] 94 % of control | [3] 87 % of control

Cc1onc(-c2ccccc2Cl)c1C(=O)NCC(=O)O
inactive: [1] 104 % of control | [2] 100 % of control | [3] 100 % of control

CC1CC2=C(CCCO2)C(C)C1 (stereo unspecified)
inactive: [4] 95 % of control

CCNC(C)(C)C(SSSC(c1ccc(C(F)(F)F)cc1)C(C)(C)NCC)c1ccc(C(F)(F)F)cc1 (stereo unspecified)
inactive: dose: 6.25 mg/kg/injection, schedule: Q01DX009 (ip), vehicle: saline 91 % of control | dose: 12.5 mg/kg/injection, schedule: Q01DX009 (ip), vehicle: saline 96 % of control | dose: 25.0 mg/kg/injection, schedule: Q01DX009 (ip), vehicle: saline 95 % of control

Cc1c(NC(=O)Nc2ccc(C3=NCCN3)cc2)cccc1NC(=O)Nc1ccc(C2=NCCN2)cc1
inactive: dose: 0.62 mg/kg/injection, schedule: Q01DX Z (ip), vehicle: carboxymethylcellulose (CMC) 92 % of control | dose: 1.25 mg/kg/injection, schedule: Q01DX Z (ip), vehicle: carboxymethylcellulose (CMC) 98 % of control | dose: 2.5 mg/kg/injection, schedule: Q01DX Z (ip), vehicle: carboxymethylcellulose (CMC) 102 % of control | dose: 8.5 mg/kg/injection, schedule: Q01DX Z (oral), vehicle: carboxymethylcellulose (CMC) 109 % of control | dose: 13.5 mg/kg/injection, schedule: Q01DX Z (oral), vehicle: carboxymethylcellulose (CMC) 121 % of control | dose: 20.0 mg/kg/injection, schedule: Q01DX Z (oral), vehicle: carboxymethylcellulose (CMC) 111 % of control | dose: 30.0 mg/kg/injection, schedule: Q01DX Z (oral), vehicle: carboxymethylcellulose (CMC) 109 % of control | dose: 36.0 mg/kg/injection, schedule: Q01DX Z (ip), vehicle: water 111 % of control | dose: 45.0 mg/kg/injection, schedule: Q01DX Z (oral), vehicle: carboxymethylcellulose (CMC) 114 % of control | dose: 62.0 mg/kg/injection, schedule: Q01DX Z (ip), vehicle: saline 124 % of control | dose: 125.0 mg/kg/injection, schedule: Q01DX Z (ip), vehicle: saline 96 % of control
active: dose: 9.0 mg/kg/injection, schedule: Q01DX Z (ip), vehicle: water 205 % of control | dose: 18.0 mg/kg/injection, schedule: Q01DX Z (ip), vehicle: water 160 % of control

CS(=O)(=O)OCCC(COS(C)(=O)=O)S(=O)(=O)Cc1ccccc1 (stereo unspecified)
inactive: dose: 15.0 mg/kg/injection, schedule: Q01DX001 (ip), vehicle: saline 101 % of control | dose: 30.0 mg/kg/injection, schedule: Q01DX001 (ip), vehicle: saline 104 % of control

CC(=O)N(O)CCCC1NC(=O)C(CCCN(O)C(C)=O)NC1=O (stereo unspecified)
inactive: dose: 100.0 mg/kg/injection, schedule: Q01DX001 (ip), vehicle: saline 97 % of control | dose: 100.0 mg/kg/injection, schedule: Q01DX009 (ip), vehicle: saline with Tween-80 100 % of control | dose: 100.0 mg/kg/injection, schedule: Q04DX003 (ip), vehicle: saline with Tween-80 92 % of control | [4] 95 % of control | dose: 200.0 mg/kg/injection, schedule: Q01DX009 (ip), vehicle: saline with Tween-80 102 % of control | dose: 200.0 mg/kg/injection, schedule: Q04DX003 (ip), vehicle: saline with Tween-80 92 % of control | dose: 400.0 mg/kg/injection, schedule: Q01DX001 (ip), vehicle: saline 95 % of control | dose: 400.0 mg/kg/injection, schedule: Q01DX009 (ip), vehicle: saline with Tween-80 105 % of control | dose: 400.0 mg/kg/injection, schedule: Q04DX003 (ip), vehicle: saline with Tween-80 100 % of control

Clc1cnc(C(Cl)(Cl)Cl)c(Cl)n1 (tested in a mixture with another compound)
inactive: dose: 12.5 mg/kg/injection, schedule: Q01DX009 (ip), vehicle: Klucel (hydroxypropylcellulose) (HPC) 94 % of control | dose: 25.0 mg/kg/injection, schedule: Q01DX009 (ip), vehicle: Klucel (hydroxypropylcellulose) (HPC) 97 % of control | dose: 50.0 mg/kg/injection, schedule: Q01DX009 (ip), vehicle: Klucel (hydroxypropylcellulose) (HPC) 100 % of control

[NH-]C(CC(N)=O)C(=O)O.[NH-]C(CC(N)=O)C(=O)O.[Zn+2] (stereo unspecified)
inactive: dose: 25.0 mg/kg/injection, schedule: Q04DX002 (ip), vehicle: saline 92 % of control | dose: 50.0 mg/kg/injection, schedule: Q04DX002 (ip), vehicle: saline 116 % of control

CC(=O)c1cccc(NC(=O)Nc2nccs2)c1
inactive: dose: 100.0 mg/kg/injection, schedule: Q01DX001 (ip), vehicle: Klucel (hydroxypropylcellulose) (HPC) 100 % of control | dose: 100.0 mg/kg/injection, schedule: Q01DX009 (ip), vehicle: Klucel (hydroxypropylcellulose) (HPC) 101 % of control and 92 % of control | dose: 100.0 mg/kg/injection, schedule: Q04DX002 (ip), vehicle: Klucel (hydroxypropylcellulose) (HPC) 101 % of control and 91 % of control | dose: 100.0 mg/kg/injection, schedule: Q04DX003 (ip), vehicle: Klucel (hydroxypropylcellulose) (HPC) 101 % of control | dose: 200.0 mg/kg/injection, schedule: Q01DX001 (ip), vehicle: Klucel (hydroxypropylcellulose) (HPC) 104 % of control | dose: 200.0 mg/kg/injection, schedule: Q01DX009 (ip), vehicle: Klucel (hydroxypropylcellulose) (HPC) 104 % of control | dose: 200.0 mg/kg/injection, schedule: Q04DX002 (ip), vehicle: Klucel (hydroxypropylcellulose) (HPC) 104 % of control and 109 % of control | dose: 200.0 mg/kg/injection, schedule: Q04DX003 (ip), vehicle: Klucel (hydroxypropylcellulose) (HPC) 103 % of control | dose: 400.0 mg/kg/injection, schedule: Q01DX001 (ip), vehicle: Klucel (hydroxypropylcellulose) (HPC) 96 % of control | dose: 400.0 mg/kg/injection, schedule: Q01DX009 (ip), vehicle: Klucel (hydroxypropylcellulose) (HPC) 109 % of control and 88 % of control | dose: 400.0 mg/kg/injection, schedule: Q04DX002 (ip), vehicle: Klucel (hydroxypropylcellulose) (HPC) 96 % of control | dose: 400.0 mg/kg/injection, schedule: Q04DX003 (ip), vehicle: Klucel (hydroxypropylcellulose) (HPC) 96 % of control
